Experimental data as given in patent US20070049564A1 (Wyeth, priority 2005, published 2007).
Values after ≈ are worked out from the molar mass of the structure shown. Read-outs that look alike come from different tables or passages of the source.

Assays:
E. coli GC 1073 = assay: MIC, broth microdilution; conditions: Escherichia coli
S. epidermidis GC 4935 = assay: MIC, broth microdilution; conditions: Staphylococcus epidermidis
S. aureus GC 6469 = assay: MIC, broth microdilution; conditions: Staphylococcus aureus
E. faecium GC 2243 = assay: MIC, broth microdilution; conditions: Enterococcus faecium
E. coli GC 6465 = assay: MIC, broth microdilution; conditions: Escherichia coli
S. aureus GC 1079 = assay: MIC, broth microdilution; conditions: Staphylococcus aureus
S. pneumoniae+ GC 4465 = assay: MIC, broth microdilution; conditions: Streptococcus pneumoniae
Staph. = assay: Range of MIC for Staph. strains, including MRSA; conditions: Staphylococcus aureus
c. albicans GC 3066 = assay: MIC, broth microdilution
E. coli GC 2233 = assay: MIC, broth microdilution; conditions: Escherichia coli
S. pyogenes GC 4563 = assay: MIC, broth microdilution; conditions: Streptococcus pyogenes
S. aureus GC 4536 = assay: MIC, broth microdilution; conditions: Staphylococcus aureus
S. aureus GC 1131 = assay: MIC, broth microdilution; conditions: Staphylococcus aureus
S. aureus GC 6466 = assay: MIC, broth microdilution; conditions: Staphylococcus aureus
E. faecalis GC 4555 = assay: MIC, broth microdilution; conditions: Enterococcus faecalis
E. coli GC 2234 = assay: MIC, broth microdilution; conditions: Escherichia coli
E. faecalis GC 2265 = assay: MIC, broth microdilution; conditions: Enterococcus faecalis
E. coli GC 2236 = assay: MIC, broth microdilution; conditions: Escherichia coli
E. coli GC 2272 = assay: MIC, broth microdilution; conditions: Escherichia coli
E. coli = assay: Range of MIC for E. coli strains; conditions: Escherichia coli

MIC (E. coli GC 1073; GC1073, read-out: MINIMAL INHIBITORY CONCENTRATION MIC, Human Serum): 16 µg/mL (≈ 21.5 µM) | MIC (E. coli GC 1073; GC1073, read-out: MINIMAL INHIBITORY CONCENTRATION MIC, Mouse Serum): 1 µg/mL (≈ 1.34 µM) | MIC (E. coli GC 1073; GC1073, read-out: MINIMAL INHIBITORY CONCENTRATION MIC, Water): 32 µg/mL (≈ 43 µM) | MIC (S. epidermidis GC 4935; GC4935, read-out: MINIMAL INHIBITORY CONCENTRATION MIC, Human Serum): 2 µg/mL (≈ 2.69 µM) | MIC (S. epidermidis GC 4935; GC4935, read-out: MINIMAL INHIBITORY CONCENTRATION MIC, Mouse Serum): 1 µg/mL (≈ 1.34 µM) | MIC (S. epidermidis GC 4935; GC4935, read-out: MINIMAL INHIBITORY CONCENTRATION MIC, Water): 2 µg/mL (≈ 2.69 µM) | MIC (S. aureus GC 6469; GC6469, read-out: MINIMAL INHIBITORY CONCENTRATION MIC, Human Serum): 1 µg/mL (≈ 1.34 µM) | MIC (S. aureus GC 6469; GC6469, read-out: MINIMAL INHIBITORY CONCENTRATION MIC, Mouse Serum): 1 µg/mL (≈ 1.34 µM) | MIC (S. aureus GC 6469; GC6469, read-out: MINIMAL INHIBITORY CONCENTRATION MIC, Water): 2 µg/mL (≈ 2.69 µM) | MIC (E. faecium GC 2243; GC2243, read-out: MINIMAL INHIBITORY CONCENTRATION MIC, Human Serum): 0.25 µg/mL (≈ 0.336 µM) | MIC (E. faecium GC 2243; GC2243, read-out: MINIMAL INHIBITORY CONCENTRATION MIC, Mouse Serum): 0.25 µg/mL (≈ 0.336 µM) | MIC (E. faecium GC 2243; GC2243, read-out: MINIMAL INHIBITORY CONCENTRATION MIC, Water): 0.5 µg/mL (≈ 0.672 µM) | MIC (E. coli GC 6465; GC6465, read-out: MINIMAL INHIBITORY CONCENTRATION MIC, Human Serum): 32 µg/mL (≈ 43 µM) | MIC (E. coli GC 6465; GC6465, read-out: MINIMAL INHIBITORY CONCENTRATION MIC, Mouse Serum): 4 µg/mL (≈ 5.38 µM) | MIC (E. coli GC 6465; GC6465, read-out: MINIMAL INHIBITORY CONCENTRATION MIC, Water): > 64 µg/mL | MIC (S. aureus GC 1079; GC1079, read-out: MINIMAL INHIBITORY CONCENTRATION MIC, Human Serum): 0.5 µg/mL (≈ 0.672 µM) | MIC (S. aureus GC 1079; GC1079, read-out: MINIMAL INHIBITORY CONCENTRATION MIC, Mouse Serum): 0.5 µg/mL (≈ 0.672 µM) | MIC (S. aureus GC 1079; GC1079, read-out: MINIMAL INHIBITORY CONCENTRATION MIC, Water): 1 µg/mL (≈ 1.34 µM) | MIC (S. pneumoniae+ GC 4465; read-out: MINIMAL INHIBITORY CONCENTRATION MIC, Human Serum): 1 µg/mL (≈ 1.34 µM) | MIC (S. pneumoniae+ GC 4465; read-out: MINIMAL INHIBITORY CONCENTRATION MIC, Mouse Serum): 2 µg/mL (≈ 2.69 µM) | MIC (S. pneumoniae+ GC 4465; read-out: MINIMAL INHIBITORY CONCENTRATION MIC, Water): 2 µg/mL (≈ 2.69 µM) | MIC (Staph.; MRSA, read-out: Range of MIC, Staph (Mouse Serum)): 0.25 to 1 µg/mL (≈ 0.336 to 1.34 µM) | MIC (Staph.; MRSA, read-out: Range of MIC, Staph (Water)): 0.5 to 2 µg/mL (≈ 0.672 to 2.69 µM) | MIC (Staph.; read-out: Minimum inhibitory concentration (MIC), Staph (Human Serum)): 0.5 to 2 µg/mL (≈ 0.672 to 2.69 µM) | MIC (Staph.; read-out: Minimum inhibitory concentration (MIC), Staph (Water)): 0.5 to 2 µg/mL (≈ 0.672 to 2.69 µM) | MIC (c. albicans GC 3066; Candida albicans, GC3066, read-out: MINIMAL INHIBITORY CONCENTRATION MIC): > 64 µg/mL | MINIMAL INHIBITORY CONCENTRATION MIC (c. albicans GC 3066; Human Serum): >64 UG/ML | MINIMAL INHIBITORY CONCENTRATION MIC (c. albicans GC 3066; Mouse Serum): >64 UG/ML | MIC (E. coli GC 2233; GC2233, read-out: MINIMAL INHIBITORY CONCENTRATION MIC, Human Serum): 16 µg/mL (≈ 21.5 µM) | MIC (E. coli GC 2233; GC2233, read-out: MINIMAL INHIBITORY CONCENTRATION MIC, Mouse Serum): 1 µg/mL (≈ 1.34 µM) | MIC (E. coli GC 2233; GC2233, read-out: MINIMAL INHIBITORY CONCENTRATION MIC, Water): 32 µg/mL (≈ 43 µM) | MIC (S. pyogenes GC 4563; GC4563, read-out: MINIMAL INHIBITORY CONCENTRATION MIC, Human Serum): 0.25 µg/mL (≈ 0.336 µM) | MIC (S. pyogenes GC 4563; GC4563, read-out: MINIMAL INHIBITORY CONCENTRATION MIC, Mouse Serum): 0.12 µg/mL (≈ 0.161 µM) | MIC (S. pyogenes GC 4563; GC4563, read-out: MINIMAL INHIBITORY CONCENTRATION MIC, Water): 0.25 µg/mL (≈ 0.336 µM) | MIC (S. aureus GC 4536; GC4536, read-out: MINIMAL INHIBITORY CONCENTRATION MIC, Human Serum): 0.5 µg/mL (≈ 0.672 µM) | MIC (S. aureus GC 4536; GC4536, read-out: MINIMAL INHIBITORY CONCENTRATION MIC, Mouse Serum): 0.25 µg/mL (≈ 0.336 µM) | MIC (S. aureus GC 4536; GC4536, read-out: MINIMAL INHIBITORY CONCENTRATION MIC, Water): 1 µg/mL (≈ 1.34 µM) | MIC (S. aureus GC 1131; GC1131, read-out: MINIMAL INHIBITORY CONCENTRATION MIC, Human Serum): 1 µg/mL (≈ 1.34 µM) | MIC (S. aureus GC 1131; GC1131, read-out: MINIMAL INHIBITORY CONCENTRATION MIC, Mouse Serum): 1 µg/mL (≈ 1.34 µM) | MIC (S. aureus GC 1131; GC1131, read-out: MINIMAL INHIBITORY CONCENTRATION MIC, Water): 1 µg/mL (≈ 1.34 µM) | MIC (S. aureus GC 6466; GC6466, read-out: MINIMAL INHIBITORY CONCENTRATION MIC, Human Serum): 0.5 µg/mL (≈ 0.672 µM) | MIC (S. aureus GC 6466; GC6466, read-out: MINIMAL INHIBITORY CONCENTRATION MIC, Mouse Serum): 0.5 µg/mL (≈ 0.672 µM) | MIC (S. aureus GC 6466; GC6466, read-out: MINIMAL INHIBITORY CONCENTRATION MIC, Water): 0.5 µg/mL (≈ 0.672 µM) | MIC (E. faecalis GC 4555; GC4555, read-out: MINIMAL INHIBITORY CONCENTRATION MIC, Human Serum): 2 µg/mL (≈ 2.69 µM) | MIC (E. faecalis GC 4555; GC4555, read-out: MINIMAL INHIBITORY CONCENTRATION MIC, Mouse Serum): 0.5 µg/mL (≈ 0.672 µM) | MIC (E. faecalis GC 4555; GC4555, read-out: MINIMAL INHIBITORY CONCENTRATION MIC, Water): 2 µg/mL (≈ 2.69 µM) | MIC (E. coli GC 2234; GC2234, read-out: MINIMAL INHIBITORY CONCENTRATION MIC, Human Serum): 8 µg/mL (≈ 10.8 µM) | MIC (E. coli GC 2234; GC2234, read-out: MINIMAL INHIBITORY CONCENTRATION MIC, Mouse Serum): 0.5 µg/mL (≈ 0.672 µM) | MIC (E. coli GC 2234; GC2234, read-out: MINIMAL INHIBITORY CONCENTRATION MIC, Water): 16 µg/mL (≈ 21.5 µM) | MIC (E. faecalis GC 2265; GC2265, read-out: MINIMAL INHIBITORY CONCENTRATION MIC, Human Serum): 0.5 µg/mL (≈ 0.672 µM) | MIC (E. faecalis GC 2265; GC2265, read-out: MINIMAL INHIBITORY CONCENTRATION MIC, Mouse Serum): 1 µg/mL (≈ 1.34 µM) | MIC (E. faecalis GC 2265; GC2265, read-out: MINIMAL INHIBITORY CONCENTRATION MIC, Water): 4 µg/mL (≈ 5.38 µM) | MIC (E. coli GC 2236; GC2236, read-out: MINIMAL INHIBITORY CONCENTRATION MIC, Human Serum): 16 µg/mL (≈ 21.5 µM) | MIC (E. coli GC 2236; GC2236, read-out: MINIMAL INHIBITORY CONCENTRATION MIC, Mouse Serum): 1 µg/mL (≈ 1.34 µM) | MIC (E. coli GC 2236; GC2236, read-out: MINIMAL INHIBITORY CONCENTRATION MIC, Water): 32 µg/mL (≈ 43 µM) | MIC (E. coli GC 2272; GC2272, read-out: MINIMAL INHIBITORY CONCENTRATION MIC, Human Serum): 8 µg/mL (≈ 10.8 µM) | MIC (E. coli GC 2272; GC2272, read-out: MINIMAL INHIBITORY CONCENTRATION MIC, Mouse Serum): 0.25 µg/mL (≈ 0.336 µM) | MIC (E. coli GC 2272; GC2272, read-out: MINIMAL INHIBITORY CONCENTRATION MIC, Water): 16 µg/mL (≈ 21.5 µM) | MIC (E. coli; 20 h, read-out: Range of MIC, E. coli (Mouse Serum)): 0.25 to 1 µg/mL (≈ 0.336 to 1.34 µM) | MIC (E. coli; read-out: Minimum inhibitory concentration (MIC), E. coli (Human Serum)): 8 to 16 µg/mL (≈ 10.8 to 21.5 µM) | MIC (E. coli; read-out: Minimum inhibitory concentration (MIC), E. coli (water)): 16 to 64 µg/mL (≈ 21.5 to 86 µM) | MIC (E. coli; read-out: Range of MIC, E. coli (Water)): 16 to 64 µg/mL (≈ 21.5 to 86 µM)
Structure (SMILES): CC(C)CC(=O)OCOC(=O)N(CC(=O)Nc1cc(N(C)C)c2c(c1O)C(=O)C1=C(O)[C@]3(O)C(=O)C(C(N)=O)=C(O)[C@@H](N(C)C)[C@@H]3C[C@@H]1C2)C(C)(C)C [Example 53, ({[(2-{[(5aR,6aS,7S,10aS)-9-(aminocarbonyl)-4,7-bis(dimethylamino)-1,8,10a,11-tetrahydroxy-10,12-dioxo-5,5a,6,6a,7,10,10a,12-octahydrotetracen-2-yl]amino}-2-oxoethyl)(tert-butyl)amino]carbonyl}oxy)methyl 3-methylbutanoate]
